# Measured values: patent publication US12629419B2, “Prevention or mitigation of T-cell engaging agent-related adverse effects” (Hoffmann-La Roche Inc., priority 2020, dated 2026)
# “Also recorded” adds a separate entry of the source.
# Key:
# [1] = system: MKN45 NucLight Red (NLR) target cells; experiment: killing assay with PBMCs, MKN45 NLR target cells and CEA-TCB (Incucyte); type: cell-based
# CD4+ and CD8+ T cells [2] = experiment: T cell activation (CD25, CD69 by flow cytometry) in CEA-TCB killing assay; type: cell-based; conditions: 10 nM CEA-TCB; for T cell activation triggered by the TCB: summary statement, also for target cell killing; for CD25 and CD69 expression on CD4+ and CD8+ T cells (T cell activation): 66 h, fixed compound concentrations; for expression of CD69 on CD8+ T cells / expression of CD25 on CD4+ T cells / expression of CD69 on CD4+ T cells / expression of CD25 on CD8+ T cells: 72 h; for expression of CD25 on CD4+ T cells / expression of CD69 on CD4+ T cells / expression of CD25 on CD8+ T cells: concentrations above 25 nM; for expression of CD25 on CD4+ T cells / expression of CD69 on CD4+ T cells: reduced from ~45%; for expression of CD25 on CD8+ T cells: reduced from ~75% (everolimus: ~70%)
# CD4+ and CD8+ T cells [3] = experiment: T cell activation (CD25, CD69) in CD20-TCB killing assay; type: cell-based; conditions: 1 nM CD20-TCB; 24 h; inhibitor 0 nM to 1000 nM
# Protocol: A similar experiment was conducted with another TCB. WSU DLCL2 cells were co-cultured together with PBMCs in the presence of 1 nM CD20-TCB (SEQ ID NOs 4-11, 24-35), and escalating sirolimus doses ranging from 0 nM to 1000 nM (FIG. 13).
# (§1) A similar experiment was conducted with CD20-TCB.
# (§2) A similar experiment was conducted with CD20-TCB. WSU DLCL2 cells were co-cultured together with PBMCs in the presence of 1 nM CD20-TCB, and escalating everolimus doses ranging from 0 nM to 1000 nM (FIG. 13).
# (§3) A similar experiment was conducted with CD20-TCB. WSU DLCL2 cells were co-cultured together with PBMCs in the presence of 1 nM CD20-TCB, and escalating ruxolitinib doses ranging from 0 nM to 1000 nM (FIG. 13).
# (§4) A similar experiment was conducted with another TCB. […] The killing of B cells was measured as a readout for the impact of the various compounds on TCB efficacy at 24 h (FIGS. 27 and 28). […] Lastly, the levels of cytokines (TNF-α, IFN-γ, IL-2, IL-6, IL-4, IL-10, GM-CSF and IL-1β) were analyzed by Luminex at assay endpoint to assess the impact of the different treatments on TCB-induced cytokine release (FIGS. 32 and 33).
# (§5) At 24 hours, tumor cell killing was measured by flow cytometry by exclusion of dead CTV cells. The supernatants were collected and cytokines were measured by Luminex.
# [4] = system: CD20-TCB-induced cytokine release; experiment: CD20-TCB-induced cytokine release (Luminex); type: cell-based; conditions: 24 h; for CD20-TCB-induced cytokine release: escalating CD20-TCB / 1 nM CD20-TCB, fixed compound concentrations
# Protocol: A similar experiment was conducted with another TCB.
# as §1, §2, §3, §4, §5
# WSU DLCL2 tumor cells = experiment: CD20-TCB killing assay, inhibitors added after 18 hours of activation: tumor cell killing; type: cell-based; conditions: 100 nM added at 18 h
# Protocol: (§6) FIG. 34. In vitro killing assay set-up. Cell Trace™ Violet (CTV) labelled WSU DLCL2 tumor cells were co-cultured together with PBMCs [E:T=200′000:20′000] and stimulated with CD20-TCB for 18 h.
# (§7) In this assay, CTV labelled WSU DLCL2 tumors cells were co-cultured with PBMCs in the presence of escalating doses of CD20-TCB for 18 hours.
# CD4+ and CD8+ T cells [5] = experiment: CD20-TCB killing assay, inhibitors added after 18 hours: T cell activation; type: cell-based; conditions: 100 nM added at 18 h
# Protocol: as §6, §7
# [6] = system: CD20-TCB-induced cytokine release; experiment: CD20-TCB killing assay, inhibitors added after 18 hours: cytokine release from pre-activated effector cells; type: cell-based; conditions: 100 nM added at 18 h
# Protocol: as §6, §7
# [7] = system: A375 NucLight Red (NLR) target-cells; experiment: killing assay with PBMCs, A375 NLR target cells and MAGEA4-TCB (Incucyte); type: cell-based; conditions: 8 nM MAGEA4-TCB; escalating inhibitor concentrations
# SUDLH-8 tumor cells = experiment: killing assay with PBMCs, CTV labelled SUDLH-8 tumor cells and CD19-TCB; type: cell-based; conditions: 24 hrs; 100 nM kinase inhibitors or dexamethasone, 5 μg/mL antibodies
# Protocol: FIG. 64. In vitro killing assay set-up. PBMCs were co-cultured with CellTrace™ Violet (CTV) labelled SUDLH-8 tumor cells (E:T=10:1) in the presence of escalating concentrations of CD19-TCB in media supplemented with the different kinase inhibitors (100 nM) for 24 hrs.
# FIG. 69. In vitro killing assay set-up. PBMCs were co-cultured with CTV labelled SUDLH-8 cells (E:T=10:1) in the presence of escalating concentrations of CD19-TCB in media supplemented with the different JAK inhibitors (100 nM) for 24 hrs.
# FIG. 73. In vitro killing assay set-up.
# (§8) PBMCs were co-cultured together with CellTrace™ Violet (CTV) labelled SUDLH-8 tumor cells and escalating concentrations of CD19-TCB in the presence of the different kinase inhibitors, including also the Src inhibitor dasatinib (FIG. 64). At assay endpoint (24 hrs), the killing of CTV labelled SUDLH-8 cells was measured by flow cytometry by exclusion of the dead SUDLH-8 cells with a Live/Dead stain. […] Lastly, the levels of cytokines were measured in the supernatants of the assay to evaluate the effect of mTOR, JAK and Src inhibitors on CD19-TCB-induced cytokine release.
# (§9) At assay endpoint (24 hrs), the killing of CTV labelled SUDLH-8 cells was measured by flow cytometry by exclusion of the dead SUDLH-8 cells with a Live/Dead stain. […] Lastly, the levels of cytokines were measured in the supernatants of the assay to assess the effect of the JAK inhibitors on CD19-TCB-induced cytokine release.
# as §9, with “stain to evaluate the effect of the different mitigation approaches on CD19-TCB-dependent killing.” for “stain.”, “address” for “assess”
# [8] = system: CD19-TCB-induced cytokine release; experiment: CD19-TCB-induced cytokine release in SUDLH-8 assay (Luminex); type: cell-based; conditions: 24 hrs
# Protocol: as §8, §9
# as §9, with “stain to evaluate the effect of the different mitigation approaches on CD19-TCB-dependent killing.” for “stain.”, “address” for “assess”
# [9] = system: CEA-TCB-induced cytokine release; experiment: CEA-TCB-induced cytokine release (Luminex, supernatants); conditions: 10 nM CEA-TCB; for levels of IFN-γ, TNF-α, IL-2, IL-6, MCP-1, IL-8, IL-10, IL-4 and GM-CSF: assay endpoint 72 h (ruxolitinib 69 h), in comparison to samples without inhibitor; for CEA-TCB induced cytokine release: even at the lowest doses tested; for CEA-TCB-induced cytokine release: fixed compound concentrations
# Protocol: The levels of cytokines were measured by Luminex in the supernatants of the assay to determine the impact of the different compounds on CEA-TCB-induced cytokine release.
# [10] = 1 nM CD20-TCB, three donors, between 18 hours and 44 hours
# [11] = measured at 44 hours, escalating CD20-TCB
# [12] = 100 nM, compared with dexamethasone
# [13] = inhibitor doses 12.5 nM to 1 μM, 50 000 PBMCs: 5 000 target cells, Incucyte
Structure (SMILES),T cell activation triggered by the TCB (CD4+ and CD8+ T cells [2]),CD25 and CD69 expression on CD4+ and CD8+ T cells (T cell activation) (CD4+ and CD8+ T cells [2]),T cell activation (CD25 and CD69 on CD4+ and CD8+ T cells) (CD4+ and CD8+ T cells [3]),CD20-TCB-induced cytokine release [4],CTV labelled WSU DLCL2 tumor cell killing (WSU DLCL2 tumor cells; [10]),CTV labelled WSU DLCL2 tumor cell killing (WSU DLCL2 tumor cells; [11]),T cell activation (CD4+ and CD8+ T cells [5]; [10]),T cell activation (CD4+ and CD8+ T cells [5]; [11]),MAGEA4-TCB induced tumor cell killing [7],CD19-TCB-dependent killing of CTV labelled SUDLH-8 cells (SUDLH-8 tumor cells),CD19-TCB-induced cytokine release ([8]; 100 nM inhibitor),"CD19-TCB-induced IFN-γ and TNF-α [8, 12]","levels of IFN-γ, TNF-α, IL-2, IL-6, MCP-1, IL-8, IL-10, IL-4 and GM-CSF [9]",CEA-TCB induced cytokine release [9],CEA-TCB-induced cytokine release ([9]; 66 h),"MKN45 NLR target cell killing by 10 nM CEA-TCB [1, 13]",expression of CD69 on CD8+ T cells (CD4+ and CD8+ T cells [2]),expression of CD25 on CD4+ T cells (CD4+ and CD8+ T cells [2]) [%],expression of CD69 on CD4+ T cells (CD4+ and CD8+ T cells [2]) [%],expression of CD25 on CD8+ T cells (CD4+ and CD8+ T cells [2]) [%],also measured
"N#CC[C@H](C1CCCC1)n1cc(-c2ncnc3[nH]ccc23)cn1 [ruxolitinib, Ruxolitinib]",does not fully inhibit,milder impact,did not fully inhibit,comparable effect to dexamethasone and dasatinib,did not impact further,did not impact,did not impact further,did not impact,did not prevent,did not prevent,comparable to the effect of the corticosteroid dexamethasone,comparable to the effect of dexamethasone,very low,strongly downregulated; also recorded: strongly reduces,inhibited; also recorded: comparable to dexamethasone and dasatinib,–,–,–,–,–,"killing of MKN45 NLR tumor cells induced by 1 nM CEA-TCB ([1]; concentration of 1 μM): partially prevented; killing of MKN45 NLR tumor cell induced by 1 nM CEA-TCB ([1]; concentrations between 0 nM and 100 nM): did not prevent; MKN45 NLR target cell killing by 10 nM CEA-TCB ([1]; inhibitor doses 6.25 nM to 100 nM): only partially reduced; expression of CD25 and CD69 on both CD4+ and CD8+ T cells (CD4+ and CD8+ T cells [2]; 69 h, escalating doses): dose-dependently influenced; release of TNF-α, IL-2 and GM-CSF ([4]; 1 nM CD20-TCB): did not have a strong effect; IL-6 and IFN-γ release induced by CD20-TCB ([4]; 1 nM CD20-TCB, concentrations above 25 nM): strongly reduced; IL-2 release ([6]; 1 nM CD20-TCB, three donors): did not prevent; further release of IFN-γ and IL-6 ([6]; 1 nM CD20-TCB, three donors): prevented further release; further production of IFN-γ, IL-6 ([6]; between 18 hours and 44 hours): prevented further production; further production of IL-2 ([6]; between 18 hours and 44 hours): did not prevent further production; CD19-TCB-induced IFN-γ, TNF-α, IL-6 and GM-CSF release ([8]; 100 nM inhibitor): prevented; CD19-TCB-induced IL-2 and GM-CSF [8, 12]: weaker; degree of inhibition of IFN-γ, TNF-α, GM-CSF, IL-6 and IL-8 levels ([9]; escalating concentrations, ruxolitinib vs. baricitinib): similar; IL-2 levels ([9]; 66 h, compared with the mTOR inhibitors): reduced IL-2 levels less strongly"
"CO[C@H]1C[C@@H]2CC[C@@H](C)[C@@](O)(O2)C(=O)C(=O)N2CCCC[C@H]2C(=O)O[C@H]([C@H](C)C[C@@H]2CC[C@@H](O)[C@H](OC)C2)CC(=O)[C@H](C)/C=C(\C)[C@@H](O)[C@@H](OC)C(=O)[C@H](C)C[C@H](C)/C=C/C=C/C=C/1C [sirolimus, Sirolimus]",does not fully inhibit,milder impact,did not fully inhibit,comparable effect to dexamethasone and dasatinib,did not impact further,did not impact,did not impact further,did not impact,did not prevent,did not prevent,comparable to the effect of the corticosteroid dexamethasone,comparable to the effect of dexamethasone,very low,strongly downregulated; also recorded: strongly reduces,inhibited; also recorded: comparable to dexamethasone and dasatinib,only partially reduced,did not affect,~15,~25,40,"cytokine release induced by CD20-TCB (IFN-γ, IL-2, TNF-α, GM-CSF and IL-6) ([4]; 1 nM CD20-TCB, concentrations above 12.5 nM): strongly reduced; further release of IFN-γ, IL-2, IL-6 ([6]; 1 nM CD20-TCB, three donors): prevented further release; IL-2, IFN-γ, IL-6 and GM-CSF release ([6]; between 18 hours and 44 hours): stopped; release of TNF-α and IL-1β ([6]; between 18 hours and 44 hours): to a lower extent"
"CO[C@H]1C[C@@H]2CC[C@@H](C)[C@@](O)(O2)C(=O)C(=O)N2CCCC[C@H]2C(=O)O[C@H]([C@H](C)C[C@@H]2CC[C@@H](OC(=O)C(C)(CO)CO)[C@H](OC)C2)CC(=O)[C@H](C)/C=C(\C)[C@@H](O)[C@@H](OC)C(=O)[C@H](C)C[C@H](C)/C=C/C=C/C=C/1C [temsirolimus, Temsirolimus]",does not fully inhibit,milder impact,did not fully inhibit,comparable effect to dexamethasone and dasatinib,did not impact further,did not impact,did not impact further,did not impact,did not prevent,did not prevent,comparable to the effect of the corticosteroid dexamethasone,comparable to the effect of dexamethasone,–,strongly downregulated; also recorded: strongly reduces,inhibited; also recorded: comparable to dexamethasone and dasatinib,only partially reduced,did not affect,~15,~25,40,"further release of IFN-γ, IL-2, IL-6 ([6]; 1 nM CD20-TCB, three donors): prevented further release; release of TNF-α and IL-1β ([6]; between 18 hours and 44 hours): to a lower extent"
